Read-outs that look alike come from different tables or passages of the source.
What was measured:
[1] = test system: PANC-1 cells; test: CellTiter-Glo assay, PANC-1; type: cell-based; details: Homo sapiens; PANC-1 Pancreas, 72 hr; read-out: IC50 (50% Inhibition of Proliferation)
Experimental: (§1) MDA-MB-231, HT-29, NCI-H460, NCI-H522, NCI-H69, GXF-209, HepG2, OVAR-3, PANC-1, DU-145, LNCAP, HL-60, K-562, and MOLT-4 cell lines were either obtained from the American Type Culture Collection (ATCC; Manassas, Va.), or from the National Cancer Institute (NCI; Frederick, Md.). RPMI-1640 media, L-glutamine dipeptide (HyQ SG-200), and HEPES were obtained from Hyclone (Logan, Utah).
(§2) All cell lines were routinely cultured twice weekly in RPMI-1640 medium supplemented with 2 mM L-glutamine dipeptide, 10 mM HEPES, and 10% FBS.
(§3) The adherent cell lines MDA-MB-231, HT-29, NCI-H460, NCI-H522, GXF-209, HepG2, OVAR-3, PANC-1, DU-145, and LNCAP cells were each seeded into two 96-well plates at 2,500 cells per well in a total volume of 50 uL and incubated in a 37° C. humidified 5% CO2 cell culture incubator overnight. The suspension cell lines NCI-H69, HL-60, K-562, and MOLT-4 were each seeded into two 96-well plates at 10,000 cell per well in a total volume of 50 uL and incubated in a 37° C. humidified 5% CO2 incubator overnight.
(§4) This was followed by making 2× stocks of the final concentrations required in RPMI-1640 medium. […]
(§5) Briefly, plates were removed from the incubator and placed on the bench at room temperatures for 30 minutes. […] Luminescence was then recorded using the PerkinElmer Microbeta scintillation and luminescence counter (Trilux).

[2] = Solubility (water, lipid); type: physicochemical
[3] = test system: OVCAR-3 cells; test: CellTiter-Glo assay, OVCAR-3; type: cell-based; details: Homo sapiens; OVCAR-3 Ovary adenoca, 72 hr; read-out: IC50 (50% Inhibition of Proliferation)
Experimental: as §1, §2, §3, §4, §5

[4] = test system: CP Control; test: Antifungal susceptibility testing (broth dilution), CP Control; type: cell-based; details: read-out: minimum inhibitory concentration (MIC)
Experimental: (§6) Anti-fungal testing was completed with a common lot for compounds 100 and 102.
(§7) A 10 mg portion of each powder was weighed out and added to 1 ml of sterile distilled water for compound 100 and DMSO for compound 102. The resulting concentration of […] was diluted to a working concentration of 640 μg/ml for each compound. All subsequent dilutions were also made using the respective diluents. Final testing concentrations ranged from 0.125-64 μg/ml.
(§8) A total of 23 isolates were tested to include 3 Candida albicans, 3 Candida glabrata, 3 Cryptococcus neoformans, 3 Aspergillus fumigatus, 3 Rhizopus oryzae, 3, Fusarium solani, 3 Pseudallescheria boydii, and 2 […] rubrum. All isolates were clinical isolates submitted to the Fungus Testing Laboratory for evaluation. Antifungal susceptibility testing was accomplished according to the methods outlined in the National Committee for Clinical Laboratory Standards, M-27A2, Reference Method for Broth Dilution Antifungal Susceptibility Testing of Yeasts; Approved Standard, and M38-A “Reference Method for Broth Dilution Antifungal Susceptibility Testing of Conidium-Forming Filamentous Fungi; Approved Standard”. This includes testing in RPMI-1640 with glutamine and without bicarbonate, an inoculum size of 0.5-2.5×10^3 for yeasts or 1-5×10^4 for moulds, and incubation at 35° C. for 24 and 48 hours.

[5] = test system: GXF-209 cells; test: CellTiter-Glo assay, GXF-209; type: cell-based; details: Homo sapiens; GXF-209 Stomach, 72 hr; read-out: IC50 (50% Inhibition of Proliferation)
Experimental: as §1, §2, §3, §4, §5

[6] = test system: MOLT-4 cells; test: CellTiter-Glo assay, MOLT-4; type: cell-based; details: Homo sapiens; MOLT-4 acute lympho, 72 hr; read-out: IC50 (50% Inhibition of Proliferation)
Experimental: as §1, §2, §3, §4, §5

[7] = test system: HepG2 cells; test: CellTiter-Glo assay, HepG2; type: cell-based; details: Homo sapiens; HepG2 Liver, 72 hr; read-out: IC50 (50% Inhibition of Proliferation)
Experimental: as §1, §2, §3, §4, §5

[8] = test system: Fourteen Human Cancer Cell Lines; test: CellTiter-Glo assay, panel of fourteen human cancer cell lines; type: cell-based; details: compared with positive comparator doxorubicin
Experimental: as §1, §2, §3, §4, §5

[9] = test system: R. arrhizus; test: Antifungal susceptibility testing (broth dilution), R. arrhizus; type: cell-based, Rhizopus oryzae; details: for MIC: Rhizopus arrhizus, read-out: minimum inhibitory concentration (MIC)
Experimental: as §6, §7, §8

[10] = test system: F. solani; test: Antifungal susceptibility testing (broth dilution), F. solani; type: cell-based, Fusarium solani; details: for MIC: Fusarium solani, read-out: minimum inhibitory concentration (MIC)
Experimental: as §6, §7, §8

[11] = test system: DAOY cells; test: DAOY xenograft tumor growth in SCID mice; type: in vivo; details: subcutaneous in SCID mice, ip daily for 20 days (FIG. 18)
Experimental: For in vivo experiments, subcutaneously implanted tumor cells are allowed to grow over 7 days to a size of 5-7 mm. On day 7, drug administration is begun ip daily for 20 days. The maximum perpendicular diameters of the tumor masses are measured every 2 to 5 days. On the 21st day after initiation of treatment, the animals are sacrificed and dissected free of the subcutaneous tissues and measured.

[12] = test system: DU-145 cells; test: CellTiter-Glo assay, DU-145; type: cell-based; details: Homo sapiens; DU-145 Prostate, 72 hr; read-out: IC50 (50% Inhibition of Proliferation)
Experimental: as §1, §2, §3, §4, §5

[13] = test system: K-562 cells; test: CellTiter-Glo assay, K-562; type: cell-based; details: Homo sapiens, K562; K-562 Leukemia chronic myelo, 72 hr; read-out: IC50 (50% Inhibition of Proliferation)
Experimental: as §1, §2, §3, §4, §5

[14] = test system: HT-29 cells; test: CellTiter-Glo assay, HT-29; type: cell-based; details: Homo sapiens; HT-29 Colon, 72 hr; read-out: IC50 (50% Inhibition of Proliferation)
Experimental: as §1, §2, §3, §4, §5

In the case of `CC(C)(C)OC(=O)N1CCN(C(=O)C2C(C(=O)O)[C@H]3CC[C@@H]2O3)CC1` (stereo in doubt) [Compound 102, 4-(3-Carboxy-7oxa-bicyclo[2.2.1]heptane-2-carbonyl)piperazine-1-carboxylic acid tert-butyl ester], the IC50 [1] is reported as 20.7 µM, the “Lipid solubility (in words)” value [2] is reported as “lipid soluble” and the IC50 [3] is reported as 5.1 µM. It also gave an MIC ([4]; 24 Hours) of over 64 µg/mL, an MIC ([4]; 48 Hours) of over 64 µg/mL and an IC50 [5] of 5.3 µM. For the same compound, the IC50 [6] was 5.6 µM, the IC50 [7] was 22.1 µM and the “Activity against the fourteen cell lines (in words)” value [8] was “significant activity”. The MIC ([9]; isolate 07-1870, 24 Hours) was over 64 µg/mL, the MIC ([9]; isolate 07-1870, 48 Hours) was over 64 µg/mL and the “minimum inhibitory concentration (MIC)” value ([9]; isolate 07-2044, 24 Hours) was over 64 µg/mL. The “minimum inhibitory concentration (MIC)” value ([9]; isolate 07-2044, 48 Hours) was over 64 µg/mL, the “minimum inhibitory concentration (MIC)” value ([9]; isolate 07-2078, 24 Hours) was over 64 µg/mL and the “minimum inhibitory concentration (MIC)” value ([9]; isolate 07-2078, 48 Hours) was over 64 µg/mL. The MIC ([10]; isolate 07-1399, 24 Hours) was over 64 µg/mL, the MIC ([10]; isolate 07-1399, 48 Hours) was over 64 µg/mL and the “minimum inhibitory concentration (MIC)” value ([10]; isolate 07-1755, 24 Hours) was over 64 µg/mL. For the same compound, the “minimum inhibitory concentration (MIC)” value ([10]; isolate 07-1755, 48 Hours) was over 64 µg/mL, the “minimum inhibitory concentration (MIC)” value ([10]; isolate 07-1867, 24 Hours) was over 64 µg/mL and the “minimum inhibitory concentration (MIC)” value ([10]; isolate 07-1867, 48 Hours) was over 64 µg/mL. The “Effect on DAOY xenograft tumor growth (in words)” value [11] was “inhibit the proliferation”, the IC50 [12] was 13 µM and the IC50 [13] was 13.7 µM. It also gave an IC50 [14] of 3.6 µM.

With `CN1CCN(C(=O)C2C(C(=O)O)[C@H]3CC[C@@H]2O3)CC1` (some centres unmarked) [Compound 100, Endothall 4-Methylpiperazine Monoamide] the IC50 [1] was 25.1 µM, the “Water solubility (in words)” value ([2]; own compounds) was “water soluble” and the IC50 [3] was 2.9 µM. The MIC ([4]; 24 Hours) was over 64 µg/mL, the MIC ([4]; 48 Hours) was over 64 µg/mL and the IC50 [5] was 7.9 µM. The IC50 [6] was 5.7 µM, the IC50 [7] was 31.6 µM and the “Activity against the fourteen cell lines (in words)” value [8] was “significant activity”. The MIC ([9]; 24 h) was over 64 µg/mL, the MIC ([9]; 48 h) was over 64 µg/mL and the “minimum inhibitory concentration (MIC)” value ([9]; isolate 07-2044, 24 Hours) was over 64 µg/mL. The “minimum inhibitory concentration (MIC)” value ([9]; isolate 07-2044, 48 Hours) was over 64 µg/mL, the “minimum inhibitory concentration (MIC)” value ([9]; isolate 07-2078, 24 Hours) was over 64 µg/mL and the “minimum inhibitory concentration (MIC)” value ([9]; isolate 07-2078, 48 Hours) was over 64 µg/mL. For the same compound, the MIC ([10]; 24 h) was over 64 µg/mL, the MIC ([10]; 48 h) was over 64 µg/mL and the “minimum inhibitory concentration (MIC)” value ([10]; isolate 07-1755, 24 Hours) was over 64 µg/mL. The “minimum inhibitory concentration (MIC)” value ([10]; isolate 07-1755, 48 Hours) was over 64 µg/mL, the “minimum inhibitory concentration (MIC)” value ([10]; isolate 07-1867, 24 Hours) was over 64 µg/mL and the “minimum inhibitory concentration (MIC)” value ([10]; isolate 07-1867, 48 Hours) was over 64 µg/mL. For the same compound, the “Effect on DAOY xenograft tumor growth (in words)” value [11] was “inhibit the proliferation”, the IC50 [12] was 16.4 µM and the IC50 [13] was 10.7 µM. For the same compound, the IC50 [14] was 5.3 µM.

Reference: patent US10023587B2, “Oxabicycloheptanes and oxabicycloheptenes, their preparation and use” (LIXTE BIOTECHNOLOGY, INC., priority 2007, dated 2018)
